Results taken from ChEMBL document CHEMBL1129058, “Indole inhibitors of human nonpancreatic secretory phospholipase A2. 2. Indole-3-acetamides with additional functionality” (J Med Chem, 1996).
Where “and” joins values, the source holds several entries; their conditions need not be identical. Equal entries are not always repeated.

Tests used:
[1] = target: T1, Phospholipase A2, membrane associated (Homo sapiens, UniProt P14555); assay: Inhibition of human non-pancreatic secretory phospholipase A2 (PLA2) in a chromogenic assay
T1 sequence (P14555 whole entry): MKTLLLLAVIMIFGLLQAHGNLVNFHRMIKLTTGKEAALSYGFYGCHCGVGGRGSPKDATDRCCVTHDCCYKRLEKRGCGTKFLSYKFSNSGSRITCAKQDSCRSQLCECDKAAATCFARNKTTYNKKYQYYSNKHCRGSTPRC

Cavia porcellus = species: Cavia porcellus; assay: Effective dose of compound against contraction of Guinea pig lung tissue with arachidonic acid.; assay type: functional
[2] = target: T2, Phospholipase A2, membrane associated (Homo sapiens) (UniProt P14555); assay: Inhibitory activity against contraction of Guinea pig lung tissue induced by PLA2.; assay type: functional, tissue-based; conditions: Cavia porcellus, target entry is the homologue from another species
T2 sequence (whole entry): T1 sequence (P14555 whole entry)

| Compound | IC50 [1] [µM] | Kb [2] | ED50 (Cavia porcellus) [µM] |
| --- | --- | --- | --- |
| Cc1c(CCC(N)=O)c2cc(OCCCC(=O)O)ccc2n1Cc1ccccc1 | 6.93 | – | – |
| Cc1c(CC(N)=O)c2cc(OCCCP(=O)(O)O)ccc2n1Cc1ccccc1 | – | – | >10 |
| Cc1c(CC(N)=O)c2cc(OCCCC(=O)O)ccc2n1Cc1ccccc1 | – | – | >30 |
| CCc1c(CC(N)=O)c2cc(OCCCP(=O)(O)OC)ccc2n1Cc1ccccc1 | 0.04 | 0.34 µM | >10 |
| Cc1c(CC(N)=O)c2cc(NCCC(=O)O)ccc2n1Cc1ccccc1 | 3.37 | – | – |
| CCc1c(CC(N)=O)c2cc(OCCCC(=O)O)ccc2n1Cc1ccccc1 | – | – | >10 |
| Cc1c(CC(N)=O)c2cc(OCCCC3=NNNN3)ccc2n1Cc1ccccc1 | 2.45 | – | – |
| CCc1c(CC(N)=O)c2cc(OCCCP(=O)(O)O)ccc2n1Cc1ccccc1 | – | – | >10 |
| Cc1c(CC(N)=O)c2c(O)cccc2n1Cc1cccc(Cl)c1 | 5.88 | – | – |
| CCCc1c(CC(N)=O)c2cc(OCCCP(=O)(O)O)ccc2n1Cc1ccccc1 | 6.13 | – | – |
| Cc1c(CC(N)=O)c2c(OCC(=O)O)cccc2n1Cc1ccccc1 | – | – | >10 |
| Cc1c(CC(N)=O)c2c(OCC(=O)O)cccc2n1Cc1cccc(Cl)c1 | 0.052 | 0.19 µM | – |
| Cc1c(CC(N)=O)c2cc(OCC(=O)O)ccc2n1Cc1ccccc1 | 1.79 | 8.22 µM | >30 |
| CCc1c(CC(N)=O)c2c(OCC(=O)O)cccc2n1Cc1ccccc1 | – | – | >3 |
| NC(=O)Cc1c(Br)n(Cc2ccccc2)c2ccc(OCCCP(=O)(O)O)cc12 [listing 1 of 3 here] | – | 0.44 µM and 1.55 µM | – |
| Cc1c(CC(N)=O)c2ccc(OCCCC(N)=O)cc2n1Cc1ccccc1 | 5.83 | – | – |
| CCCc1c(CC(N)=O)c2cc(O)ccc2n1Cc1ccccc1 | 34 | – | – |
| Cc1c(CC(N)=O)c2cc(OCCCP(=O)(O)O)ccc2n1Cc1ccccc1-c1ccccc1 | – | – | >10 |
| CCc1c(CC(N)=O)c2cc(OCCCP(=O)(OC)OC)ccc2n1Cc1ccccc1 | 0.266 | – | – |
| CCc1c(CC(N)=O)c2cc(OCCCP(=O)(O)O)ccc2n1Cc1cccc(Cl)c1 | – | 0.24 µM | – |
| Cc1c(CC(=O)O)c2cc(OCCCC(=O)O)ccc2n1Cc1ccccc1 | 25.9 | – | – |
| NC(=O)Cc1cn(Cc2ccccc2)c2ccc(OCP(=O)(O)O)cc12 | 3.68 | – | – |
| Cc1c(CC(N)=O)c2cc(NCCCC(=O)O)ccc2n1Cc1ccccc1 | 1.83 | – | – |
| Cc1c(CC(N)=O)c2c(OCP(=O)(O)O)cccc2n1Cc1ccccc1 | – | – | >10 |
| CCc1c(CC(N)=O)c2cc(OCCCS(=O)(=O)O)ccc2n1Cc1ccccc1 | – | – | >10 |
| Cc1c(CC(N)=O)c2cc(Oc3cccc(C(=O)O)c3)ccc2n1Cc1ccccc1 | > 110 | – | – |
| NC(=O)Cc1c(Br)n(Cc2ccccc2)c2cc(Cl)c(OCCCC(=O)O)cc12 | – | – | >10 |
| CCc1c(C(N)=O)c2c(OCC(=O)O)cccc2n1Cc1cccc(Cl)c1 | 16.8 | – | – |
| Cc1c(CC(N)=O)c2c(O)cccc2n1Cc1ccccc1 | 8.28 | – | – |
| Cc1c(CC(N)=O)c2c(OCC(=O)O)cccc2n1Cc1ccccc1-c1ccccc1 | – | 0.14 µM | – |

More lines, in order of falling IC50 [1], values ahead:

| IC50 [1] [µM] | Kb [2] | Compound | ED50 (Cavia porcellus) [µM] |
| --- | --- | --- | --- |
| 1.38 | – | COC(=O)COc1cccc2c1c(CC(N)=O)c(C)n2Cc1ccccc1 | – |
| 1.27 | – | Cc1c(CC(N)=O)c2ccc(OCCCC(=O)NN)cc2n1Cc1ccccc1 | – |
| 1.15 | 8.8 µM | Cc1c(CC(N)=O)c2cc(OCCCCC(=O)O)ccc2n1Cc1ccccc1 | >30 |
| 1.02 | – | Cc1c(CC(N)=O)c2cc(O)ccc2n1Cc1ccccc1 | – |
| 1.02 | 2.17 µM | Cc1c(CC(=O)NN)c2cc(OCCCC(=O)O)ccc2n1Cc1ccccc1 | >30 |
| 0.555 | – | CCc1c(CC(N)=O)c2cc(OCc3ccccc3C(=O)O)ccc2n1Cc1ccccc1 | – |
| 0.527 | 3.76 µM | Cc1c(CC(N)=O)c2cc(OCCC(=O)O)ccc2n1Cc1ccccc1 | >30 |
| 0.462 | 1.07 µM | Cc1c(CC(=O)NN)c2cc(OCCCP(=O)([O-])[O-])ccc2n1Cc1ccccc1.[Na+].[Na+] | >10 |
| 0.422 | 1.95 µM | Cc1c(CC(N)=O)c2c(OCC(=O)NN)cccc2n1Cc1ccccc1 | – |
| 0.321 | – | NC(=O)Cc1cn(Cc2ccccc2)c2cccc(OCC(=O)O)c12 | – |
| 0.306 | 22.5 µM | CCOC(=O)CCCCOc1ccc2c(CC(N)=O)c(C)n(Cc3ccccc3)c2c1 | >30 |
| 0.203 | – | NC(=O)Cc1cn(Cc2ccccc2)c2ccc(OCCCP(=O)(O)O)cc12 | – |
| 0.18 | – | NC(=O)Cc1cn(Cc2ccccc2)c2ccc(OCCCC(=O)O)cc12 | – |
| 0.165 | – | NC(=O)Cc1c(Br)n(Cc2ccccc2)c2ccc(OCCCP(=O)(O)O)cc12 [listing 2 of 3 here] | – |
| 0.162 | 0.63 µM | CSc1c(CC(N)=O)c2cc(OCCCC(=O)O)ccc2n1Cc1ccccc1 | >10 |
| 0.155 | 0.332 µM | Cc1c(CC(N)=O)c2cc(CCCC(=O)O)ccc2n1Cc1ccccc1 | – |
| 0.147 | 0.72 µM | Cc1c(CC(N)=O)c2cc(OCc3ccccc3C(=O)O)ccc2n1Cc1ccccc1 | >10 |
| 0.143 | – | C=CCc1c(O)ccc2c1c(CC(N)=O)c(CC)n2Cc1ccccc1 | – |

| IC50 [1] [µM] | Kb [2] | Compound | ED50 (Cavia porcellus) [µM] |
| --- | --- | --- | --- |
| 0.093 | – | CSc1c(CC(N)=O)c2cc(OCCCC(N)=O)ccc2n1Cc1ccccc1 | – |
| 0.085 | – | NC(=O)Cc1c(Br)n(Cc2ccccc2)c2cc(Cl)c(O)cc12 | – |
| 0.077 | 0.61 µM | NC(=O)Cc1c(Cl)n(Cc2ccccc2)c2ccc(OCCCC(=O)O)cc12 | >30 |
| 0.075 | – | Cc1cc(OCCCC(=O)O)cc2c(CC(N)=O)c(C)n(Cc3ccccc3)c12 | – |
| 0.074 | 0.9 µM | NC(=O)Cc1c(C2CC2)n(Cc2ccccc2)c2ccc(OCCCP(=O)(O)O)cc12 | – |
| 0.073 | 0.53 µM | NC(=O)Cc1c(Br)n(Cc2ccccc2)c2ccc(OCCCC(=O)O)cc12 | >10 |
| 0.059 | – | CCc1c(CC(N)=O)c2cc(SCCC(=O)O)ccc2n1Cc1ccccc1 | – |
| 0.058 | – | CCc1c(CC(N)=O)c2cc(SCCCP(=O)(O)O)ccc2n1Cc1ccccc1 | – |
| 0.051 | – | Cc1cc(SCCCC(=O)O)cc2c(CC(N)=O)c(C)n(Cc3ccccc3)c12 | – |
| 0.044 | – | NC(=O)Cc1c(C2CC2)n(Cc2ccccc2)c2ccc(OCCCC(=O)O)cc12 | – |
| 0.04 | 0.698 µM | CCc1c(CC(N)=O)c2cc(OCCCP(=O)(O)O)c(C(C)C)cc2n1Cc1ccccc1 | – |
| 0.033 | 0.206 µM | CCc1c(CC(N)=O)c2cc(OCCCC(=O)O)c(C)cc2n1Cc1ccccc1 | – |
| 0.033 | – | CCc1c(CC(N)=O)c2cc(SCCCC(=O)O)c(C(C)C)cc2n1Cc1ccccc1 | – |
| 0.033 | – | NC(=O)Cc1c(Br)n(Cc2ccccc2)c2ccc(OCCCP(=O)(O)O)cc12 [listing 3 of 3 here] | >10 |
| 0.023 | 0.124 µM | CCc1c(CC(N)=O)c2cc(SCCCC(=O)O)ccc2n1Cc1ccccc1 | – |
| 0.022 | – | CCc1c(CC(N)=O)c2cc(SCCCC(=O)O)c(C)cc2n1Cc1ccccc1 | – |
| 0.015 | 0.202 µM | CCc1c(CC(N)=O)c2cc(OCCCP(=O)(O)O)c(C)cc2n1Cc1ccccc1 | – |
